Data on 102 compounds can be found in PubChem BioAssay AID1552 (Sanford-Burnham Center for Chemical Genomics, 2009).

The source made the active and inactive calls. The rule behind the calls is not given here.

The assay deals with Ubiquitin-conjugating enzyme E2 N (Homo sapiens) (UniProt P61088). As to the kind of experiment: NMR detection of UBE2N ligand binding – biophysical, purified protein (AID 1552). The settings on record: NMR binding to purified UBE2N.
Ubiquitin-conjugating enzyme E2 N (Homo sapiens), sequence (P61088 whole entry, looked up): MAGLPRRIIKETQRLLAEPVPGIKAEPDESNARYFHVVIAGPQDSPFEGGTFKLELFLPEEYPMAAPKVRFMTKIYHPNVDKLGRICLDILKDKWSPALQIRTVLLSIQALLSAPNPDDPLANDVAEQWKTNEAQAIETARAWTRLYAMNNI
As to `COc1c2ccoc2cc2oc(=O)ccc12`, the Kd is > 4 mM (inactive). Next, `C/C1=C/CC(C)(C)/C=C/C/C(C)=C/CC1`: > 4 mM (inactive). On to `NCc1nnnn1-c1ccccc1`, for which the Kd is > 4 mM (inactive). The result for `Cc1cc(C)n(S(=O)(=O)c2ccc(C)c(C)c2C)n1` reads > 4 mM (inactive). Consider `Cc1cc(C)n2nc(NCc3ccccc3)nc2n1`, for which the Kd is > 4 mM (inactive). The result for `O=C(Nc1cccc2ncccc12)c1cccnc1` reads > 4 mM (inactive).

Take `C/C=C/C=N/NC(=O)c1ccc(=O)n(C)c1`: the Kd was > 4 mM (inactive).

In the case of `C=CCn1c(N)c(C(=O)N2CCOCC2)sc1=S`, the Kd is > 4 mM (inactive). For `OCc1ccc2occc2c1`, the Kd was > 4 mM (inactive). For `O=C1CSC(c2ccc3c(c2)OCO3)N1` (configuration not stated), the Kd is > 4 mM (inactive). The result for `Cc1cc(C(=O)NCc2cccnc2)cs1` reads > 4 mM (inactive); that for `CN1CCN(c2nc3c(c(=O)[nH]2)CCCC3)CC1`, > 4 mM (inactive). Consider `Cc1ccc(C)n1NC(=O)c1cccs1`, for which the Kd was > 4 mM (inactive).

As to `O=C(NCC1CCNCC1)c1ccccn1`, the Kd is > 4 mM (inactive). In the case of `Cc1[nH]n(-c2ccccc2)c(=O)c1[N+](=O)[O-]`, the Kd was > 4 mM (inactive). Regarding `CC(=O)O[C@H]1CC[C@@]2(C)C(C[C@@H](OC(C)=O)[C@@]3(C)C4=CC(=O)O[C@@H](c5ccoc5)[C@]4(C)CCC23)C1(C)C` (some centres not stated), the Kd is > 4 mM (inactive). As to `CC1(C)C2CC(=O)[C@]3(C)C(CC[C@@]4(C)[C@H](c5ccoc5)OC(=O)C5OC543)[C@@]2(C)[C@@H](O)C[C@H]1O` (some centres not stated), the Kd is > 4 mM (inactive). `Cc1nn2c(=O)c(NC(=O)c3ccccc3)cnc2s1`: the Kd is > 4 mM (inactive). Next, `CN=C(c1ccc([N+](=O)[O-])cc1)N(C)C`: > 4 mM (inactive). The result for `COc1ccc(-c2coc3cc(OC(C)=O)cc(OC(C)=O)c3c2=O)cc1` reads > 4 mM (inactive); that for `Cc1cc(N(CN2CCCC2=O)C(=O)c2ccccc2)no1`, > 4 mM (inactive). In the case of `COc1ccc(-c2coc3cc(OC)cc(OC)c3c2=O)cc1`, the Kd was > 4 mM (inactive).

Take `O=C(Nc1ccccc1)Nc1ccccn1`: the Kd was > 4 mM (inactive).

For the compound `NCc1c[nH]c2ccccc12`, the Kd is > 4 mM (inactive). The result for `O=C1N=c2ccccc2=C1c1sc(=S)[nH]c1O` reads > 4 mM (inactive); that for `O=C1CSC2=NCCCN12`, > 4 mM (inactive); that for `Cc1nccc2c1[nH]c1ccccc12`, > 4 mM (inactive). Next, `O=C1CS/C(=N/N=C2CCCC2)N1`: > 4 mM (inactive); `Cc1ccccc1NC(=O)c1ocnc1C`: > 4 mM (inactive). Next, `O=C(O)c1ccc2[nH]c3c(c2c1)CSCC3`: > 4 mM (inactive); `O=c1/c(=C\c2cccnc2)sc2nc3ccccc3n12`: > 4 mM (inactive). Turning to `CC12CCC(O)CC1CCC1C2[C@H](O)CC2(C)C(C3=CC(=O)OC3)CCC12O` (some centres not stated), the Kd was > 4 mM (inactive). The result for `CCC(C)C(=O)O[C@H]1[C@H](O)C2C(CN3CC(C)CCC3[C@@]2(C)O)C2C[C@]34O[C@]5(O)C(OC(=O)C(C)(O)CC)CC[C@@]3(C)C5C(OC(C)=O)[C@@H](OC(C)=O)C4[C@@]21O` (some centres not stated) reads > 4 mM (inactive); that for `C[C@@H]1CC[C@@]23CCC4(C)[C@@](C=CC5[C@@]6(C)CC[C@H](O)C(C)(C)C6CC[C@]54C)(OC2=O)C3[C@H]1C` (some centres not stated), > 4 mM (inactive); that for `c1ccc(-n2nnnc2Oc2cccc3cccnc23)cc1`, > 4 mM (inactive). For the compound `O=C(Nc1c[nH]c(=O)[nH]c1=O)c1cccs1`, the Kd was > 4 mM (inactive).

For `CN(c1ccccc1C(=O)N1CCOCC1)S(C)(=O)=O`, the Kd is > 4 mM (inactive). The result for `CCCCCCCCCCCCCCC(C(=O)OC)C(O)(CC(=O)OC)C(=O)OC` (configuration not stated) reads > 4 mM (inactive).

On to `O=C(Nc1ccccc1C(F)(F)F)N1CCCCCC1`, for which the Kd was > 4 mM (inactive). `NC(=O)C1CCN(c2nccc(C(F)(F)F)n2)CC1`: the Kd was > 4 mM (inactive).

For the compound `COc1cccc(-c2csc(NC(C)=O)n2)c1`, the Kd is > 4 mM (inactive).

Take `O=C(Nc1cnccn1)c1ccncc1`: the Kd was > 4 mM (inactive).

Take `NC(=O)c1sc2ccccc2c1Cl`: the Kd was > 4 mM (inactive). Next, `COC(=O)Nc1nc2c(C)cccc2s1`: > 4 mM (inactive). For the compound `NCc1csc(-c2cccs2)n1`, the Kd was > 4 mM (inactive).

With `O=C(Cc1cccs1)Nc1ccon1`, the Kd is > 4 mM (inactive).

`CN(C)N1C(=O)c2ccccc2C1=O`: the Kd was > 4 mM (inactive). Turning to `Nc1ccccc1N=C1CNC(=O)C1`, the Kd was > 4 mM (inactive). Next, `CN(C)C(=O)Nc1ccc(F)cc1F`: > 4 mM (inactive); `CC1(C)N=C2C(=N)C=CC=C2N1O`: > 4 mM (inactive); `O=C1C[C@@H](c2ccccc2)Oc2cc(O)cc(O)c21`: > 4 mM (inactive). Regarding `N#Cc1nc(-c2ccccc2Cl)oc1N1CCOCC1`, the Kd was > 4 mM (inactive).

Consider `O=C(Nc1nncs1)Oc1ccccc1`, for which the Kd was > 4 mM (inactive). The result for `Cn1cc(Cl)c(C(=O)Nc2ccncc2)n1` reads > 4 mM (inactive). The result for `Cn1c(=O)c2c(ncn2CCN)n(C)c1=O` reads > 4 mM (inactive); that for `NC1=NC(=O)/C(=C\c2cccc(C(=O)O)c2)S1`, > 4 mM (inactive); that for `NC(=O)CN1CC(c2ccccc2)CC1=O` (configuration not stated), > 4 mM (inactive). Regarding `Cc1ccccc1N1C(=O)CC(=O)NC1=O`, the Kd was > 4 mM (inactive).

Turning to `CC(=O)Nc1ccc(NC(C)=O)cc1`, the Kd was > 4 mM (inactive). The result for `NS(=O)(=O)c1ccc(N=Cc2cccs2)cc1` reads > 4 mM (inactive); that for `CN=C(C)c1c(O)n(C)c(=S)n(C)c1=O`, > 4 mM (inactive).

As to `Cc1cc(O)c(C=O)c(O)c1C(=O)O`, the Kd is > 4 mM (inactive). For the compound `O=C1NC(=S)S/C1=C/c1ccncc1`, the Kd was > 4 mM (inactive).

On to `Cc1ccc2c(c1)CC[C@H]1CC(=O)CC[C@]21C`, for which the Kd is > 4 mM (inactive).

In the case of `CCn1cnc2sc(C(=O)O)c(C)c2c1=O`, the Kd is > 4 mM (inactive). With `Cc1occc1C(=O)NCc1ccncc1`, the Kd is > 4 mM (inactive).

Turning to `Nc1ccc(O)cn1`, the Kd is > 4 mM (inactive). On to `O=C(Cc1cccs1)Nc1nncs1`, for which the Kd was > 4 mM (inactive). The result for `Cc1oc(-c2ccccc2)nc1CC(=O)O` reads > 4 mM (inactive); that for `COC(=O)C[C@H]1C(C)(C)C(=O)[C@@H]2CC3C4=CC(=O)O[C@@H](c5ccoc5)[C@]4(C)CCC3C1(C)C2=O` (some centres not stated), > 4 mM (inactive); that for `c1ccc(CCN2CCN(CCc3ccccn3)CC2)nc1`, > 4 mM (inactive). Next, `COCC(=O)Nc1c(C(N)=O)oc2ccccc12`: > 4 mM (inactive); `C=CCSCC=C`: > 4 mM (inactive); `CCn1nnc2c(NCc3ccccn3)ncnc21`: > 4 mM (inactive). As to `NC(=O)c1ccccc1N=Cc1ccco1`, the Kd is > 4 mM (inactive). Next, `Cc1n[nH]c(C)c1CN`: > 4 mM (inactive); `CS(=O)(=O)c1ccc(N)cc1`: > 4 mM (inactive).

In the case of `Cc1ccc(NC(=O)CN2C(=O)CSC2=O)cc1`, the Kd was > 4 mM (inactive). Next, `CCN(CC)C(=O)c1n[nH]c(=O)c2ccccc12`: > 4 mM (inactive). For the compound `NCC1COc2ccccc2O1` (configuration not stated), the Kd is > 4 mM (inactive). Next, `CCOC(=O)c1cc(C)n(-n2cnnc2)c1C`: > 4 mM (inactive). The result for `COC1=CC(C)[C@@H]2C[C@H]3OC(=O)C[C@H]4C(C)=C(OC)C(=O)C([C@@]34C)[C@@]2(C)C1=O` (some centres not stated) reads > 4 mM (inactive); that for `CC(=O)c1c(C)nn(CC(=O)O)c1C`, > 4 mM (inactive). Take `OCC(O)C(O)C(O)CO` (configuration not stated): the Kd is > 4 mM (inactive). In the case of `Cc1nnsc1C(=O)Nc1cccc(S(N)(=O)=O)c1`, the Kd is > 4 mM (inactive). The result for `O=C1NC(=Nc2ccccc2Cl)SC1(CO)CO` reads > 4 mM (inactive). The result for `CC1(C)C(=O)C=C[C@@]2(C)C1C=C[C@]1(C)C2CC[C@@]2(C)[C@H](c3ccoc3)OC(=O)C3OC321` (some centres not stated) reads > 4 mM (inactive); that for `O=c1nc(N2CCOCC2)nc2n1CCO2`, > 4 mM (inactive); that for `O=C1CSC(=Nc2ccc(C(=O)O)cc2)N1`, > 4 mM (inactive). Next, `CC(=O)c1cc(-c2nc3ccccc3n2C)n(C)c1`: > 4 mM (inactive); `Nc1nsc(-c2ccccc2)n1`: > 4 mM (inactive); `O=C(O)CC1Sc2ccccc2NC1=O` (configuration not stated): > 4 mM (inactive). Regarding `Clc1ccc(-c2noc(CN3CCCC3)n2)cc1`, the Kd was > 4 mM (inactive).

Consider `NC1=NC(=O)/C(=C/c2cccs2)S1`, for which the Kd was > 4 mM (inactive).

For the compound `Nc1cc(C(F)(F)F)ccc1N1CCOCC1`, the Kd is > 4 mM (inactive). The result for `C[C@@H]1[C@H]2[C@H](O[C@@H]3O[C@H](CO)[C@@H](O)[C@H](O)[C@H]3O)OC=C(C(=O)O)[C@H]2C[C@@H]1O` reads > 4 mM (inactive). On to `NCc1ccc(-c2cccs2)s1`, for which the Kd was > 4 mM (inactive).

Take `CC1=CC2C(C(C)C)CCC(C)(O)C2CC1` (configuration not stated): the Kd is > 4 mM (inactive). Next, `Cc1cc(C(=O)NN2CCOCC2)c(C)o1`: > 4 mM (inactive).

`C[C@H]1CCCC(=O)CCC/C=C/c2cc(O)cc(O)c2C(=O)O1`: the Kd was > 4 mM (inactive). For the compound `Cc1cc(Oc2ccccc2)nc(N)n1`, the Kd was > 4 mM (inactive).

Regarding `CC(=O)Nc1nnc(-c2ccco2)o1`, the Kd was > 4 mM (inactive).

By Kd is commonly meant the concentration at which binding is half-saturated.
